Like-named read-outs stand apart in the source and are kept apart here.
How the values were obtained:
KRAS (WT)::SOS1 = KRAS (WT)::SOS1 (Homo sapiens (Human), UniProt P01116, C118S); experiment: KRAS::SOS1 AlphaScreen binding assay, KRAS WT
Method in brief: (§1)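 Compounds (up to 100 μM, eleven fivefold dilutions in duplicate) were incubated 30 min with KRAS 1-169 (10 nM, or 7.5 nM for G12C), GST-SOS1 564-1049 (5 nM for G12D/G12C, 10 nM for others) and 10 μM GDP in PBS buffer with BSA and Tween. Donor/acceptor beads were then added for 60 min at room temperature, and IC50 came from a 4-parameter fit of the AlphaScreen signal.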

MKN1 cells = experiment: MKN1 CTG proliferation assay (120 h) (gastric cancer, wt amplified); format: cell-based; settings: Homo sapiens
Method in brief: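 MKN1 gastric cancer cells (200–500 per well, RPMI + 10% FCS) given a logarithmic compound dose series and incubated 120 h. Viability by CellTiter-Glo luminescence as percent of DMSO controls. IC50 by four-parameter non-linear regression.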

KRAS (G13D)::SOS1 = KRAS (G13D)::SOS1 (Homo sapiens (Human), UniProt P01116, C118S/G13D); experiment: KRAS::SOS1 AlphaScreen binding assay, KRAS G13D
Sequence of KRAS (G13D)::SOS1 (P01116 other isoform, or with tags, fused parts or gaps G13D/C118S): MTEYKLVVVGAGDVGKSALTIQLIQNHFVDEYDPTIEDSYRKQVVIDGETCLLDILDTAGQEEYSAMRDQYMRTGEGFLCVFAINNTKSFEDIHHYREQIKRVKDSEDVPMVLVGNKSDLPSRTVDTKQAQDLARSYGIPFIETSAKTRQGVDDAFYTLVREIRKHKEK
Excerpt: This assay can be used to examine the potency with which compounds according to the invention binding to (mutated) KRAS inhibit the protein-protein interaction between SOS1 and (mutated) KRAS e.g., KRAS WT, KRAS G12C, KRAS G12D, KRAS G12V, KRAS G13D. […] Low IC50 values in this assay setting are indicative of strong inhibition of protein-protein interaction between SOS1 and KRAS:
These assays measure the inhibitory effect of compounds on KRAS mutant protein-protein interactions using the Alpha Screen technology by Perkin Elmer.
The following (mutant) enzyme forms of KRAS and interacting proteins are used in these assays at the given concentrations: • KRAS (G12D) 1-169, N-terminal 6His-tag, C-terminal avi-tag (Xtal BioStructures, Inc.); final assay concentration 10 nM and SOS1 564-1049, N-terminal 229 GST-tag, TEV cleavage site (Viva Biotech Ltd); final assay concentration 5 nM; • KRAS (G12C) 1-169, N-terminal 6His-tag for purification, cleaved off, C-terminal avi-tag, biotinylated, mutations: C51S, C80L, C118S (in house); final assay concentration 7.5 nM and SOS1 564-1049, N-terminal 229 GST-tag, TEV cleavage site (Viva Biotech Ltd); final assay concentration 5 nM; • KRAS (G12V) 1-169, N-terminal 6His-tag for purification, cleaved off, C-terminal avi-tag, biotinylated, TEV cleavage site, mutation: C118S, GDP loaded (in house); final assay concentration 10 nM and SOS1 564-1049, N-terminal 229 GST-tag, TEV cleavage site (Viva Biotech Ltd); final assay concentration 10 nM; • KRAS (G13D) 1-169, N-terminal 6His-tag for purification, cleaved off, C-terminal avi-tag, biotinylated, TEV cleavage site, mutation: C118S, GDP loaded (in house); final assay concentration 10 nM and SOS1 564-1049, N-terminal 229 GST-tag, TEV cleavage site (Viva Biotech Ltd); final assay concentration 10 nM; • KRAS (WT) 1-169, N-terminal 6His-tag for purification, cleaved off, C-terminal avi-tag, biotinylated, TEV cleavage site, mutation: C118S, GDP loaded (in house); final assay concentration 10 nM and SOS1 564-1049, N-terminal 229 GST-tag, TEV cleavage site (Viva Biotech Ltd); final assay concentration 10 nM.
Test compounds dissolved in DMSO are dispensed onto assay plates (Proxiplate 384 PLUS, white, PerkinElmer; 6008289) using an Access Labcyte Workstation with the Labcyte Echo 55×. For the chosen highest assay concentration of 100 μM, 150 nL of compound solution are transferred from a 10 mM DMSO compound stock solution. A series of eleven fivefold dilutions per compound are transferred to the assay plate, compound dilutions are tested in duplicates. DMSO are added as backfill to a total volume of 150 nL.
The assays run on a fully automated robotic system in a darkened room below 100 Lux. To 150 nl of compound dilution 10 μl of a mix including KRAS mutant protein, SOS1 (final assay concentrations see above) and GDP nucleotide (Sigma G7127; final assay concentration 10 μM) in assay buffer (1×PBS, 0.1% BSA, 0.05% Tween 20) are added into columns 1-24.
After 30 minutes incubation time 5 μl of Alpha Screen bead mix in assay buffer are added into columns 1-23. Bead mix consists of AlphaLISA Glutathione Acceptor Beads (PerkinElmer, Cat No AL109) and AlphaScreen Streptavidin Donor Beads (PerkinElmer Cat No 6760002) in assay buffer at a final assay concentration of 10 μg/ml each.
Plates are kept at room temperature in a darkened incubator. After an additional 60 minutes incubation time the signal is measured in a PerkinElmer Envision HTS Multilabel Reader using the AlphaScreen specs from PerkinElmer.
Each plate contains up to 16 wells of a negative control depending on the dilution procedure (platewise or serial) (DMSO instead of test compound; with KRAS mutant::SOS1 GDP mix and bead mix; column 23) and 16 wells of a positive control (DMSO instead of test compound; with KRAS mutant::SOS1 GDP mix w/o bead mix; column 24).
As internal control known inhibitors of KRAS mutant::SOS1 interaction can be measured on each compound plate. […]

KRAS (G12V)::SOS1 = KRAS (G12V)::SOS1 (Homo sapiens (Human), UniProt P01116, C118S/G12V); experiment: KRAS::SOS1 AlphaScreen binding assay, KRAS G12V
Sequence of KRAS (G12V)::SOS1 (P01116 other isoform, or with tags, fused parts or gaps G12V/C118S): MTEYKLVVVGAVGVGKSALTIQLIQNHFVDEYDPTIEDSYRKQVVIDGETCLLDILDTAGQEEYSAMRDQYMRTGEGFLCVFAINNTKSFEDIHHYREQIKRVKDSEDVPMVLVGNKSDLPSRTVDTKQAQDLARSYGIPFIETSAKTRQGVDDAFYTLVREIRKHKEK
Method in brief: as §1

[1] = MKN-1, assay 2, CTG 120 h, read-out: MKN1 (assay 2) IC50
[2] = MKN-1, assay 3, CTG 120 h, read-out: MKN1 (assay 3) IC50
[3] = MKN-1, assay 1, CTG 120 h, read-out: MKN1 (assay 1) IC50

Sequence of KRAS (WT)::SOS1 (P01116 other isoform, or with tags, fused parts or gaps C118S): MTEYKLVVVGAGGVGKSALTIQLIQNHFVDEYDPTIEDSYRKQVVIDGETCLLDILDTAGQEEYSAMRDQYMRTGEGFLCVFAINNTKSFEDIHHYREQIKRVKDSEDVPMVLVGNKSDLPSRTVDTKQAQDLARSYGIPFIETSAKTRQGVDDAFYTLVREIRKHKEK

Compound | IC50 (KRAS (WT)::SOS1) [nM] | IC50 (MKN1 cells; [1]) [nM] | IC50 (KRAS (G13D)::SOS1) [nM] | IC50 (MKN1 cells; [2]) [nM] | IC50 (KRAS (G12V)::SOS1) [nM] | IC50 (MKN1 cells; [3]) [nM]
C[C@H](Oc1cc(N2C[C@H](C)NC3(CC3)C2)nc(-c2noc3c2CCC[C@@]32CCCc3sc(N)c(C#N)c32)n1)[C@@H]1C[C@@H](F)CN1C [II-18] | 6 | 279 |  |  |  | 
C[C@H](Oc1cc(-n2ccc(C(=O)N3CCCC3)n2)nc(-c2noc3c2CCC[C@@]32CCCc3sc(N)c(C#N)c32)n1)[C@@H]1CCCN1C [II-19] |  |  | 9 | 47 |  | 
CNC(=O)c1ccn(-c2cc(O[C@@H](C)[C@@H]3CCCN3C)nc(-c3noc4c3CCC[C@@]43CCCc4sc(N)c(C#N)c43)n2)n1 [II-20] | 4 |  |  |  | 2 | 24
C[C@H](Oc1cc(-n2ccc(C(N)=O)n2)nc(-c2noc3c2CCC[C@@]32CCCc3sc(N)c(C#N)c32)n1)[C@@H]1CCCN1C [II-21] | 3 | 27 | 12 | 24 | 1 | 20
C[C@H](Oc1cc(-n2ccc(C(=O)NC3COC3)n2)nc(-c2noc3c2CCC[C@@]32CCCc3sc(N)c(C#N)c32)n1)[C@@H]1CCCN1C [II-25] | 16 |  | 11 |  | 7 | 
C[C@H](Oc1cc(-n2ccc(C(=O)NC3(C)COC3)n2)nc(-c2noc3c2CCC[C@@]32CCCc3sc(N)c(C#N)c32)n1)[C@@H]1CCCN1C [II-26] | 3 |  | 8 |  | 2 | 
C[C@H](Oc1cc(-c2cnn(C)n2)nc(-c2noc3c2CCC[C@@]32CCCc3sc(N)c(C#N)c32)n1)[C@@H]1C[C@@H](F)CN1C [II-28] |  |  |  |  | 12 | 
C[C@H](Oc1cc(N2CCNC3(COC3)C2)nc(-c2noc3c2CCC[C@@]32CCCc3sc(N)c(C#N)c32)n1)[C@@H]1CCCN1C [II-31] |  |  | 8 | 30 |  | 
C[C@H](Oc1cc(N2CC3CCC(C2)N3)nc(-c2noc3c2CCC[C@@]32CCCc3sc(N)c(C#N)c32)n1)[C@@H]1CCCN1C [II-34] | 8 |  | 38 | 453 | 17 | 
CN[C@H]1CCN(c2cc(O[C@@H](C)[C@@H]3CCCN3C)nc(-c3noc4c3CCC[C@@]43CCCc4sc(N)c(C#N)c43)n2)C1 [II-35] | 13 |  |  |  |  | 
C[C@H](Oc1cc(-c2ccn([C@H]3CCCOC3)n2)nc(-c2noc3c2CCC[C@@]32CCCc3sc(N)c(C#N)c32)n1)[C@@H]1CCCN1C [II-42] | 5 |  |  |  | 2 | 
C[C@H](Oc1nc(-c2noc3c2CCC[C@@]32CCCc3sc(N)c(C#N)c32)cc(N2C[C@H](C)N[C@@H](C)C2)n1)[C@@H]1CCCN1C [II-46] | 53 |  |  |  |  | 
C[C@H](Oc1cc(N2CCC(N(C)C)CC2)nc(-c2noc3c2CCC[C@@]32CCCc3sc(N)c(C#N)c32)n1)[C@@H]1CCCN1C [II-48] | 34 |  |  |  |  | 
[2H]C([2H])([2H])N1C[C@H](F)C[C@H]1[C@H](C)Oc1cc(N2CCNC3(CC3)C2)nc(-c2noc3c2CCC[C@@]32CCCc3sc(N)c(C#N)c32)n1 [II-208] | 4 | 451 |  | 245 |  | 

Source: patent US20240174690A1, “ANNULATED 2-AMINO-3-CYANO THIOPHENES AND DERIVATIVES FOR THE TREATMENT OF CANCER” (BOEHRINGER INGELHEIM INTERNATIONAL GMBH, priority 2021, published 2024)
